Values quoted from earlier work in patent publication US20080168569A1, “Non-invasive methods and related compositions for identifying compounds that modify in vivo aggregations of disease-related polypeptides” (priority 2004, published 2008).

Test system: truncated DRPLA proteins that contain an expanded-polyglutamine domain
Conditions: in vitro; transglutaminase inhibitors

SMILES | formation of cellular aggregates of truncated DRPLA proteins
CN(C)c1cccc2c(S(=O)(=O)NCCCCCN)cccc12 [monodansyl cadaverine] | inhibit the formation of cellular aggregates
NCCSSCCN [cystamine] | inhibit the formation of cellular aggregates
